In patent publication US10870658B2, “Aldose reductase inhibitors and methods of use thereof” (The Trustees of Columbia University in the City of New York, priority 2016, dated 2020):
In brackets after ≈: the same amount, converted by molar mass.

Tests used:
physchem = conditions: octanol/phosphate buffer, pH 7.4
Description: Octanol/Buffer Partition Coefficient (Log D) at pH 7.4:
The octanol/buffer partition coefficient of three test articles was measured at pH 7.4. The pH 7.4 buffer was prepared by combining 50 mL of 0.2 M solution of KH2PO4 with 150 mL of dH2O, and then adjusting to pH 7.4 with 10 N NaOH. In a single incubation, 15 μL of a 10 mM DMSO solution of each test article (100 μM) was added to test tubes which contained 0.75 mL of octanol and 0.75 mL of pH 7.4 phosphate buffer. Testosterone was also introduced to each tube as an internal control, also at a dosing concentration of 100 μM. These samples were gently mixed on a benchtop rotator for 1 hour at room temperature. The tubes were then removed from the rotator and the aqueous and organic phases were allowed to separate for 1 hour. An aliquot of the organic layer was taken and diluted 200-fold into a mixture of 1:1 buffer:acetonitrile (ACN). An aliquot of the aqueous layer was taken and diluted 2-fold, 10-fold, and 200-fold into a mixture of 1:1 buffer:ACN. All samples were assayed by LC-MS/MS using electrospray ionization.

[1] = Equilibrium solubility in phosphate buffer, pH 7.4; type: physicochemical; conditions: aqueous buffer, thermodynamic from solid, phosphate buffer pH 7.4, shaken overnight at room temperature, LC-MS/MS
Description: Equilibrium Solubility in Phosphate Buffer, pH 7.4:
The equilibrium solubility of test articles was measured in pH 7.4 aqueous buffers. […] At least 1 mg of powder for each test article was combined with 1 mL of buffer to make a≥1 mg/mL mixture. These samples were shaken on a Thermomixer® overnight at room temperature. The samples were then centrifuged for 10 minutes at 10,000 rpm. […] Standard concentrations ranged from 1.0 μM to 1.0 nM.

Aldose Reductase = Aldose Reductase (Homo sapiens, UniProt P15121); experiment: Aldose reductase enzymatic inhibition (micro plate assay, D-glyceraldehyde and NADPH, absorbance at 340 nm); type: biochemical; conditions: D-glyceraldehyde and NADPH as substrate; 0.1 nm to 10 uM
Description: Aldose Reductase Enzymatic Inhibition:
All compounds and Zopolrestat were tested individually in a micro plate assay for AR inhibition using D-glyceraldehyde and NADPH as substrate and the absorbance changes at 340 nm was monitored. % Inhibition was calculated for ARIs at concentration ranging 0.1 nm to 10 uM.

[2] = positive control, octanol/buffer pH 7.4; cited from earlier work

With `O=C(O)Cc1nn(Cc2nc3cc(C(F)(F)F)ccc3s2)c(=O)c2c(Cl)sc(Cl)c12` [Compound VII, 2-(5,7-dichloro-4-oxo-3-((5-(trifluoromethyl)benzo[d]thiazol-2-yl)methyl)-3,4-dihydrothieno[3,4-d]pyridazin-1-yl)acetic acid] the melting point was 205 to 207 °C.

With `O=C(O)Cc1nn(Cc2nc3cc(C(F)(F)F)ccc3s2)c(=O)c2cscc12` [Compound XII, 2-(4-oxo-3-((5-(trifluoromethyl)benzo[d]thiazol-2-yl)methyl)-3,4-dihydrothieno[3,4-d]pyridazin-1-yl)acetic acid] the logD (physchem) was -0.09 and the solubility [1] was 970 µg/mL (≈ 2280 µM).

In the case of `O=C(O)Cc1nn(Cc2nc3cc(F)ccc3s2)c(=O)c2cscc12` [Compound XIV, 2-(3-((5-fluorobenzo[d]thiazol-2-yl)methyl)-4-oxo-3,4-dihydrothieno[3,4-d]pyridazin-1-yl)acetic acid], the melting point is reported as 172 to 173 °C, the logD (physchem) is reported as -0.87 and the IC50 (Aldose Reductase) is reported as 0.06 µM. It also gave a solubility [1] of 650 µg/mL (≈ 1730 µM).

In the case of `O=C(O)Cc1nn(Cc2nc3ccccc3s2)c(=O)c2cscc12` [Compound XVI, 2-(3-(benzo[d]thiazol-2-ylmethyl)-4-oxo-3,4-dihydrothieno[3,4-d]pyridazin-1-yl)acetic acid], the melting point is reported as 172 to 173 °C.

Work on `O=C(O)Cc1nn(Cc2nc3cc(Cl)ccc3s2)c(=O)c2cscc12` [Compound XX, 2-(3-((5-chlorobenzo[d]thiazol-2-yl)methyl)-4-oxo-3,4-dihydrothieno[3,4-d]pyridazin-1-yl)acetic acid] yielded a melting point of 184 to 185 °C, a logD (physchem) of -0.35 and an IC50 (Aldose Reductase) of 0.035 µM. It also gave a solubility [1] of 590 µg/mL (≈ 1510 µM).

With `CC(C)(C)OC(=O)Cc1nn(Cc2cc3cc(Cl)ccc3o2)c(=O)c2cscc12` [Compound XXIII, tert-butyl 2-(3-((5-chlorobenzofuran-2-yl)methyl)-4-oxo-3,4-dihydrothieno[3,4-d]pyridazin-1-yl)acetate] the melting point was 117 to 118 °C.

For `O=C(O)Cc1nn(Cc2cc3cc(Cl)ccc3o2)c(=O)c2cscc12` [Compound XXIV, 2-(3-((5-chlorobenzofuran-2-yl)methyl)-4-oxo-3,4-dihydrothieno[3,4-d]pyridazin-1-yl)acetic acid], the melting point was 154 to 155 °C.

For `O=C(O)Cc1nn(Cc2cc3ccccc3o2)c(=O)c2cscc12` [Compound XXVI, 2-(3-(benzofuran-2-ylmethyl)-4-oxo-3,4-dihydrothieno[3,4-d]pyridazin-1-yl)acetic acid], the melting point was 158 to 159 °C, the logD (physchem) was -0.86 and the IC50 (Aldose Reductase) was 0.057 µM. For the same molecule, the solubility [1] was 790 µg/mL (≈ 2320 µM).

In the case of `C[C@]12CC[C@H]3[C@@H](CCC4=CC(=O)CC[C@@]43C)[C@@H]1CC[C@@H]2O` [Testosterone], the “Log D (published/known)” value [2] is given as 3.0-3.4.
